{"source": "PubChem BioAssay AID1963844", "about": "(Molecular Pharmacology Branch, DTP, NCI, 2024)", "system": "422866-222-R5-J1-PDC complex spheroid viability", "assay": "Anticancer human tumor 422866-222-R5-J1-PDC patient-derived pancreatic adenocarcinoma cell line growth inhibition [POLQ]", "details": "for viability, T/C: stronger effect = lower value", "description": "Multicellular complex tumor spheroid response to Polymerase (POL) inhibitors (novobiocin, ART-558, RP6685) in combination with a variety of drugs and investigational agents in selected tumor cell lines\nThe POL inhibitors (novobiocin, ART-558, and RP6685) were evaluated both individually and in combination with standard of care and investigational anticancer small molecules within a complex spheroid model of solid tumors. . Complex spheroids include a stromal component modeled by human endothelial cells (HUVEC) and fibroblasts modeled by human mesenchymal stem cells (MSCs). The concentration ranges selected for each drug and investigational agent were based upon clinically achievable concentrations if the clinical Cmax of the agent was known.\nCompounds. The drugs and investigational agents: novobiocin (NSC847541), ART-558 (NSC835418), RP-6685 (NSC848927), peposertib (NSC802822), ceralasertib (NSC780249), elimusertib (NSC800525), camonsertib (NSC841442), AZD-1390 (NSC803789), olaparib (NSC753686), talazoparib (NSC767125), rucaparib (NSC756644), sotorasib (NSC818433), MRTX-1133 (NSC836407), SN-38 (NSC673596), topotecan (NSC609699), epotoside (NSC141540), doxorubicin (NSC123127), gemcitabine (NSC613327), 5-fluorouracil (NSC19893), paclitaxel (NSC125973), vemurafenib (NSC761431), MSA-2 (NSC828583), SN-011 (NSC837082), adavosertib (NSC754352), prexasertib (NSC758257), carboplatin (NSC241240) and oxaliplatin (NSC266046), were obtained from the National Cancer Institute (NCI) Developmental Therapeutics Program Chemical Repository (21). The FDA-approved anticancer drug set is available from the Developmental Therapeutics Program at https://dtp.cancer.gov/organization/dscb/obtaining/. […] The stock solutions were prepared in dimethyl sulfoxide (DMSO, Sigma-Aldrich, St. Louis, MO, cat. D2650), except for the platinum compounds which were prepared in saline (Quality Biological, Gaithersburg, MD, cat. 114-055-101), at 800-fold the tested concentration and stored at -70 degrees C prior to their use. All drugs and investigational agents were tested over a range starting from a high concentration at or near the clinical Cmax and decreasing in half-log increments. If the clinical Cmax for an agent had not been determined, the highest concentration tested was 10 microM, except for SN-38, which was tested at a high concentration of 1 microM.\nCell Culture. All cells were maintained in an incubator at 37 degrees C and 5% CO2 with 95% humidity. The PDC lines were cultured according to standard operating procedures established by the NCI PDMR (https://pdmr.cancer.gov). Table 3 of the manuscript, lists the cell lines along with the number of the three cell types plated to form the mct-spheroids and media for tumor cell growth. After thawing, all PDC lines, except 997537-175-T-J1-PDC and 415267-285-R-J2-PDC, were cultured in Matrigel-coated flasks prepared with a working solution of 1X Ham's F-12 nutrient mix, without supplementation (Thermo Fisher Scientific, cat. 11765054), 100 U/mL penicillin-streptomycin (Thermo Fisher Scientific, cat. 15140122), and 2.5% Matrigel (Corning Inc., Corning, NY, cat. 354248) for the first three passages. The two PDC lines 997537-175-T-J1-PDC and 415267-285-R-J2-PDC were cultured on uncoated flasks. The 857933-349-R-J2-PDC line was cultured in 6C/Colon 1B media containing advanced DMEM/F-12 (Thermo Fisher Scientific, cat. 12634028), 10 mM HEPES (Thermo Fisher Scientific, cat. 15630080), 1X GlutaMAX supplement (Thermo Fisher Scientific, cat. 35050061), 0.1 mg/mL primocin (InvivoGen, San Diego, CA, cat. ant-pm-2), 10% defined fetal bovine serum, heat inactivated (HyClone Laboratories Inc., Logan, UT, cat. SH30070.03HI), 50% L-WRN conditioned media (ATCC, cat. CRL-3276), 1.25 mM N-Acetyl-L-cysteine (Sigma-Aldrich, cat. A9165), 10 mM nicotinamide (Sigma-Aldrich, cat. N0636), 1X B-27 supplement (Thermo Fisher Scientific, cat. 17504044), 1X N-2 supplement (Thermo Fisher Scientific, cat. […]", "note": "pIC50: −log10 of the molar value. “And” between values parts separate entries of the source, which are not always exact repeats. Identical values can stand only once.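 Further: spheroids exposed to compounds for one week before readout.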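 Wherever viability, T/C is given: percent of DMSO vehicle wells luminescence so 100% = untreated viability.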", "data": [{"smiles": "CCc1cc2c(N3CCc4c(cc(Cn5ccnc5)cc4-c4cn(C)nc4C(F)(F)F)C3=O)cc(C)nc2c(OC)n1", "values": [{"measurement": "viability, T/C", "setting": "compound 0.0316 µM", "result": "89.5% and 92.6% and 79.2%"}, {"measurement": "viability, T/C", "setting": "compound 0.1 µM", "result": "93.5% and 80.2% and 93.8%"}, {"measurement": "viability, T/C", "setting": "compound 0.316 µM", "result": "96.5% and 104% and 95.6%"}, {"measurement": "viability, T/C", "setting": "compound 1 µM", "result": "120% and 102% and 96.1%"}, {"measurement": "viability, T/C", "setting": "compound 10 µM", "result": "109% and 99.8% and 115%"}, {"measurement": "pIC50", "setting": "curve of compound", "result": "< 5.00"}]}, {"smiles": "C=CC(=O)N1CCN(c2nc(=O)n(-c3c(C)ccnc3C(C)C)c3nc(-c4c(O)cccc4F)c(F)cc23)C(C)C1", "note": "(stereo unspecified)", "values": [{"measurement": "viability, T/C", "setting": "compound 0.0316 µM", "result": "30.6% and 30.5% and 34.5%"}, {"measurement": "viability, T/C", "setting": "compound 0.1 µM", "result": "23.7% and 28.7% and 31.4%"}, {"measurement": "viability, T/C", "setting": "compound 0.316 µM", "result": "24.4% and 29.1% and 24.3%"}, {"measurement": "viability, T/C", "setting": "compound 1 µM", "result": "23.3% and 29.6% and 26.2%"}, {"measurement": "viability, T/C", "setting": "compound 3.16 µM", "result": "25.1% and 22.9% and 26.6%"}, {"measurement": "viability, T/C", "setting": "compound 10 µM", "result": "28.1% and 23.5% and 24.2%"}, {"measurement": "pIC50", "setting": "curve of compound", "result": "> 7.50"}]}, {"smiles": "CCc1c2c(nc3ccc(O)cc13)-c1cc3c(c(=O)n1C2)COC(=O)[C@]3(O)CC", "note": "+ COC1C(OC(N)=O)C(O)C(Oc2ccc3c(O)c(NC(=O)c4ccc(O)c(CC=C(C)C)c4)c(=O)oc3c2C)OC1(C)C", "values": [{"measurement": "pIC50", "setting": "curve of first compound, second compound 0.0316 µM", "result": "> 8.50"}, {"measurement": "pIC50", "setting": "curve of first compound, second compound 0.1 µM", "result": "> 8.50"}, {"measurement": "pIC50", "setting": "curve of first compound, second compound 0.316 µM", "result": "> 8.50"}, {"measurement": "pIC50", "setting": "curve of first compound, second compound 1 µM", "result": "> 8.50"}, {"measurement": "pIC50", "setting": "curve of first compound, second compound 3.16 µM", "result": "> 8.50"}, {"measurement": "pIC50", "setting": "curve of first compound, second compound 10 µM", "result": "> 8.50"}, {"measurement": "viability, T/C", "setting": "second compound 0.0316 µM, first compound 0.00316 µM", "result": 44.1, "unit": "%"}, {"measurement": "viability, T/C", "setting": "second compound 0.0316 µM, first compound 0.01 µM", "result": 34.4, "unit": "%"}, {"measurement": "viability, T/C", "setting": "second compound 0.0316 µM, first compound 0.0316 µM", "result": 33.4, "unit": "%"}, {"measurement": "viability, T/C", "setting": "second compound 0.0316 µM, first compound 0.1 µM", "result": 30.8, "unit": "%"}, {"measurement": "viability, T/C", "setting": "second compound 0.0316 µM, first compound 0.316 µM", "result": 28.7, "unit": "%"}, {"measurement": "viability, T/C", "setting": "second compound 0.0316 µM, first compound 1 µM", "result": 19.7, "unit": "%"}, {"measurement": "viability, T/C", "setting": "second compound 0.1 µM, first compound 0.00316 µM", "result": 41.3, "unit": "%"}, {"measurement": "viability, T/C", "setting": "second compound 0.1 µM, first compound 0.01 µM", "result": 34.8, "unit": "%"}, {"measurement": "viability, T/C", "setting": "second compound 0.1 µM, first compound 0.0316 µM", "result": 32, "unit": "%"}, {"measurement": "viability, T/C", "setting": "second compound 0.1 µM, first compound 0.1 µM", "result": 30.6, "unit": "%"}, {"measurement": "viability, T/C", "setting": "second compound 0.1 µM, first compound 0.316 µM", "result": 34.6, "unit": "%"}, {"measurement": "viability, T/C", "setting": "second compound 0.1 µM, first compound 1 µM", "result": 18.6, "unit": "%"}, {"measurement": "viability, T/C", "setting": "second compound 0.316 µM, first compound 0.00316 µM", "result": 41.1, "unit": "%"}, {"measurement": "viability, T/C", "setting": "second compound 0.316 µM, first compound 0.01 µM", "result": 35.9, "unit": "%"}, {"measurement": "viability, T/C", "setting": "second compound 0.316 µM, first compound 0.0316 µM", "result": 30.9, "unit": "%"}, {"measurement": "viability, T/C", "setting": "second compound 0.316 µM, first compound 0.1 µM", "result": 29.6, "unit": "%"}, {"measurement": "viability, T/C", "setting": "second compound 0.316 µM, first compound 0.316 µM", "result": 32.9, "unit": "%"}, {"measurement": "viability, T/C", "setting": "second compound 0.316 µM, first compound 1 µM", "result": 16.7, "unit": "%"}, {"measurement": "viability, T/C", "setting": "second compound 1 µM, first compound 0.00316 µM", "result": 41.8, "unit": "%"}, {"measurement": "viability, T/C", "setting": "second compound 1 µM, first compound 0.01 µM", "result": 30.9, "unit": "%"}, {"measurement": "viability, T/C", "setting": "second compound 1 µM, first compound 0.0316 µM", "result": 30.5, "unit": "%"}, {"measurement": "viability, T/C", "setting": "second compound 1 µM, first compound 0.1 µM", "result": 33.8, "unit": "%"}, {"measurement": "viability, T/C", "setting": "second compound 1 µM, first compound 0.316 µM", "result": 32.6, "unit": "%"}, {"measurement": "viability, T/C", "setting": "second compound 1 µM, first compound 1 µM", "result": 19, "unit": "%"}, {"measurement": "viability, T/C", "setting": "second compound 3.16 µM, first compound 0.00316 µM", "result": 41, "unit": "%"}, {"measurement": "viability, T/C", "setting": "second compound 3.16 µM, first compound 0.01 µM", "result": 34.8, "unit": "%"}, {"measurement": "viability, T/C", "setting": "second compound 3.16 µM, first compound 0.0316 µM", "result": 36, "unit": "%"}, {"measurement": "viability, T/C", "setting": "second compound 3.16 µM, first compound 0.1 µM", "result": 32.7, "unit": "%"}, {"measurement": "viability, T/C", "setting": "second compound 3.16 µM, first compound 0.316 µM", "result": 34.3, "unit": "%"}, {"measurement": "viability, T/C", "setting": "second compound 3.16 µM, first compound 1 µM", "result": 22.5, "unit": "%"}, {"measurement": "viability, T/C", "setting": "second compound 10 µM, first compound 0.00316 µM", "result": 39.4, "unit": "%"}, {"measurement": "viability, T/C", "setting": "second compound 10 µM, first compound 0.01 µM", "result": 34.2, "unit": "%"}, {"measurement": "viability, T/C", "setting": "second compound 10 µM, first compound 0.0316 µM", "result": 31.6, "unit": "%"}, {"measurement": "viability, T/C", "setting": "second compound 10 µM, first compound 0.1 µM", "result": 32.1, "unit": "%"}, {"measurement": "viability, T/C", "setting": "second compound 10 µM, first compound 0.316 µM", "result": 31.1, "unit": "%"}, {"measurement": "viability, T/C", "setting": "second compound 10 µM, first compound 1 µM", "result": 19.9, "unit": "%"}]}, {"smiles": "CC1COCCN1c1cc(C2(S(C)(=N)=O)CC2)nc(-c2ccnc3[nH]ccc23)n1", "note": "(stereo unspecified)", "values": [{"measurement": "viability, T/C", "setting": "compound 0.0316 µM", "result": "92.3% and 91.5% and 116%"}, {"measurement": "viability, T/C", "setting": "compound 0.1 µM", "result": "101% and 93.1% and 100%"}, {"measurement": "viability, T/C", "setting": "compound 0.316 µM", "result": "93.4% and 95.6% and 96.3%"}, {"measurement": "viability, T/C", "setting": "compound 1 µM", "result": "74% and 72.6% and 85.2%"}, {"measurement": "viability, T/C", "setting": "compound 3.16 µM", "result": "49.9% and 44.6% and 41.7%"}, {"measurement": "viability, T/C", "setting": "compound 10 µM", "result": "39.9% and 30.8% and 42%"}, {"measurement": "pIC50", "setting": "curve of compound", "result": "5.52 and 5.61 and 5.58"}]}, {"smiles": "O=C(c1cc(Cc2n[nH]c(=O)c3ccccc23)ccc1F)N1CCN(C(=O)C2CC2)CC1", "values": [{"measurement": "viability, T/C", "setting": "compound 0.0316 µM", "result": "98.1% and 101% and 83.2%"}, {"measurement": "viability, T/C", "setting": "compound 0.1 µM", "result": "97.3% and 102% and 84.5%"}, {"measurement": "viability, T/C", "setting": "compound 1 µM", "result": "99.5% and 102% and 91.3%"}, {"measurement": "pIC50", "setting": "curve of compound", "result": "< 5.00"}]}]}
